# Results from US10392368B2, “Pyrazolo and triazolo bicyclic compounds as JAK kinase inhibitors” (THERAVANCE BIOPHARMA R&D IP, LLC, priority 2017, dated 2019).
# Read-outs that look alike come from different tables or passages of the source.
# Columns and labels:
# JAK3 = target: T1, JAK3 (Homo sapiens, UniProt P52333); experiment: Biochemical JAK3 kinase assay (LanthaScreen); parameters: GST; purchased Life Technologies; settings: for Ki: read-out: JAK 3 (pKi) (converted)
# T1 sequence (P52333 1-1124): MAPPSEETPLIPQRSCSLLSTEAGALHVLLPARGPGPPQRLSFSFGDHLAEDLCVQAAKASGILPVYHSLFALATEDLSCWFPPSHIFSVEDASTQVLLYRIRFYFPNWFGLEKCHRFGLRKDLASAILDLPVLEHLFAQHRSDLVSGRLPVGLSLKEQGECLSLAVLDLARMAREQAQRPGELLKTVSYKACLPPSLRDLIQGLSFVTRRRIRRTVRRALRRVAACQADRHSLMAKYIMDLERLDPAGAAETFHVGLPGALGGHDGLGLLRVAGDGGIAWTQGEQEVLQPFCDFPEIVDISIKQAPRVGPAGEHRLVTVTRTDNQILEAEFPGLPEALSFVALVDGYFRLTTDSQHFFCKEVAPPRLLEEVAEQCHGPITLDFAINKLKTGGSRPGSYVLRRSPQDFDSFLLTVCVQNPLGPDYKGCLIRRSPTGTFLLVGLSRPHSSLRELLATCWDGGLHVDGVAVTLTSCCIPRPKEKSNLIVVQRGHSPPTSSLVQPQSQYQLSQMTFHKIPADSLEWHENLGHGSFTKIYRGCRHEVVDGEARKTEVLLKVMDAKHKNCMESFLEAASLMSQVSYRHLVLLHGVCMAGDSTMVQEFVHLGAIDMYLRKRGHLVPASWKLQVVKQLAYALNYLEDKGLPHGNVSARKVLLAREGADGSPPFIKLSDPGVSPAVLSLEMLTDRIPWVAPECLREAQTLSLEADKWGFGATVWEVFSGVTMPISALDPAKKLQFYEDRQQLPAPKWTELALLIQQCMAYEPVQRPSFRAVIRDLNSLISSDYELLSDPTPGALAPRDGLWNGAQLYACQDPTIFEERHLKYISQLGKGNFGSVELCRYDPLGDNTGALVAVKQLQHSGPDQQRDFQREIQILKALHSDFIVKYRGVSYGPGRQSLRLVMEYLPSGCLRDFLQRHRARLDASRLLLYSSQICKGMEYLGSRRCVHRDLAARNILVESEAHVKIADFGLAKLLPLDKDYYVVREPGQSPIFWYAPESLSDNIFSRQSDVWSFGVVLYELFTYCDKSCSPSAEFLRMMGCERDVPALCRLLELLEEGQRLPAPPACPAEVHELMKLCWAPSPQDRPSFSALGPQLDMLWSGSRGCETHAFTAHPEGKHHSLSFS
# Summary of the method: (§1)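 Values are pKi, calculated by Cheng-Prusoff from IC50 obtained by robust 4-parameter fitting of percent inhibition. The kinase reaction used GFP-STAT1 peptide in HEPES pH 7.5 buffer with MgCl2, EGTA and Brij-35, ATP-initiated after compound pre-incubation, 1 h at ambient temperature.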
# Tyk2 = target: T2, Tyk2 (Homo sapiens, UniProt P29597); experiment: Biochemical Tyk2 kinase assay (LanthaScreen); settings: for Ki: read-out: Tyk 2 (pKi) (converted)
# T2 construct: GST; purchased Life Technologies
# Summary of the method: as §1
# JAK1 = target: T3, JAK1 (Homo sapiens, UniProt P23458); experiment: Biochemical JAK1 kinase assay (LanthaScreen); settings: for Ki: read-out: JAK 1 (pKi) (converted)
# T3 construct: GST; purchased Life Technologies
# Summary of the method: as §1
# JAK2 = target: T4, JAK2 (Homo sapiens, UniProt O60674); experiment: Biochemical JAK2 kinase assay (LanthaScreen); settings: for Ki: read-out: JAK 2 (pKi) (converted)
# T4 construct: GST; purchased Life Technologies
# Summary of the method: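 GST-tagged recombinant JAK2 pre-incubated 1 h at ambient temperature with compound and GFP-STAT1 peptide in HEPES pH 7.5/MgCl2 buffer, then ATP added for a 1 h reaction with 1% DMSO. TR-FRET read after EDTA and Tb-anti-pSTAT1 (pTyr701) addition; IC50 from 4-parameter fit, converted to pKi by Cheng-Prusoff.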
# [1] = system: IL-2 stimulated pSTAT5 in Tall-1 T cells; experiment: Cellular JAK3 potency assay: inhibition of IL-2 stimulated pSTAT5 in Tall-1 T cells; format: cell-based, human; settings: for IC50: Homo sapiens, read-out: Tall-1 (pIC50) (converted)
# Summary of the method: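 In human Tall-1 T cells, IL-2 (300 ng/ml final, 30 min) drives STAT5 phosphorylation after a 1 h compound pretreatment. Lysates are assayed for pSTAT5 by AlphaLisa, and IC50 derived from signal versus concentration is expressed as pIC50.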
# [2] = selectivity: difference of pKi JAK3 and pKi JAK1
# [3] = TALL-1, IL-2 stimulated pSTAT5 in Tall-1 T cells
# [4] = selectivity JAK3 over JAK1, difference of pKi
# [5] = TALL-1, IL-2 stimulated pSTAT5, Tall-1 T cells
# [6] = IL-2 stimulated pSTAT5, Tall-1 T cells
# [7] = IL-2 stimulated pSTAT5 in Tall-1 T cells
# T4 sequence (O60674 whole entry): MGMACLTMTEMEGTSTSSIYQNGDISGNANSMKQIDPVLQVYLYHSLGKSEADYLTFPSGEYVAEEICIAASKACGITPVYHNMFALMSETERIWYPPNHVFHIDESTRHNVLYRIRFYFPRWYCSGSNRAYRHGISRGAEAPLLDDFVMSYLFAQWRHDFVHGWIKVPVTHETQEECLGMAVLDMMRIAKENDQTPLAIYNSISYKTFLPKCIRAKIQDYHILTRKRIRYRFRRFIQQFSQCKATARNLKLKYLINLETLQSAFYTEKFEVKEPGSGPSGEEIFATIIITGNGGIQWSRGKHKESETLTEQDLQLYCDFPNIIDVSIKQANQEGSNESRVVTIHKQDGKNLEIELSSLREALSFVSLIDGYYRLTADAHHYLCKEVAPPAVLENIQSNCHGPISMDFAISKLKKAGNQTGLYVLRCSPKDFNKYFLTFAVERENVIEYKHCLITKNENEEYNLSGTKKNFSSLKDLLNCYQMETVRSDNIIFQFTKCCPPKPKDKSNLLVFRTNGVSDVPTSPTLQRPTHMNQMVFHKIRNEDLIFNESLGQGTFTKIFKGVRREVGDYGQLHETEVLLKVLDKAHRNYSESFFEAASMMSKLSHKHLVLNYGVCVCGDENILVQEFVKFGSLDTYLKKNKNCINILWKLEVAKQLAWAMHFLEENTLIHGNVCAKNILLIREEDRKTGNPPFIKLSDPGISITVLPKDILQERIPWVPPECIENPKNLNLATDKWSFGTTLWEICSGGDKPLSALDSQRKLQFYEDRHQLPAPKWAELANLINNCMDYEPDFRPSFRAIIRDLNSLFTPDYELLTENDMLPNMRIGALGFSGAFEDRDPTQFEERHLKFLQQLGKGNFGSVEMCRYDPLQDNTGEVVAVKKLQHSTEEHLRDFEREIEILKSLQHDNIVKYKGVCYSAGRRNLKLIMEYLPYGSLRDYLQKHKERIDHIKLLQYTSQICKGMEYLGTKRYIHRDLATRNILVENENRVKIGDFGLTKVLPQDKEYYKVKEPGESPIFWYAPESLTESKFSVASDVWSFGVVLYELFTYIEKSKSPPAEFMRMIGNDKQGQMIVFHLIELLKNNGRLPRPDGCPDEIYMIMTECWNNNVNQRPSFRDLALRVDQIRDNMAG
# T3 sequence (P23458 whole entry): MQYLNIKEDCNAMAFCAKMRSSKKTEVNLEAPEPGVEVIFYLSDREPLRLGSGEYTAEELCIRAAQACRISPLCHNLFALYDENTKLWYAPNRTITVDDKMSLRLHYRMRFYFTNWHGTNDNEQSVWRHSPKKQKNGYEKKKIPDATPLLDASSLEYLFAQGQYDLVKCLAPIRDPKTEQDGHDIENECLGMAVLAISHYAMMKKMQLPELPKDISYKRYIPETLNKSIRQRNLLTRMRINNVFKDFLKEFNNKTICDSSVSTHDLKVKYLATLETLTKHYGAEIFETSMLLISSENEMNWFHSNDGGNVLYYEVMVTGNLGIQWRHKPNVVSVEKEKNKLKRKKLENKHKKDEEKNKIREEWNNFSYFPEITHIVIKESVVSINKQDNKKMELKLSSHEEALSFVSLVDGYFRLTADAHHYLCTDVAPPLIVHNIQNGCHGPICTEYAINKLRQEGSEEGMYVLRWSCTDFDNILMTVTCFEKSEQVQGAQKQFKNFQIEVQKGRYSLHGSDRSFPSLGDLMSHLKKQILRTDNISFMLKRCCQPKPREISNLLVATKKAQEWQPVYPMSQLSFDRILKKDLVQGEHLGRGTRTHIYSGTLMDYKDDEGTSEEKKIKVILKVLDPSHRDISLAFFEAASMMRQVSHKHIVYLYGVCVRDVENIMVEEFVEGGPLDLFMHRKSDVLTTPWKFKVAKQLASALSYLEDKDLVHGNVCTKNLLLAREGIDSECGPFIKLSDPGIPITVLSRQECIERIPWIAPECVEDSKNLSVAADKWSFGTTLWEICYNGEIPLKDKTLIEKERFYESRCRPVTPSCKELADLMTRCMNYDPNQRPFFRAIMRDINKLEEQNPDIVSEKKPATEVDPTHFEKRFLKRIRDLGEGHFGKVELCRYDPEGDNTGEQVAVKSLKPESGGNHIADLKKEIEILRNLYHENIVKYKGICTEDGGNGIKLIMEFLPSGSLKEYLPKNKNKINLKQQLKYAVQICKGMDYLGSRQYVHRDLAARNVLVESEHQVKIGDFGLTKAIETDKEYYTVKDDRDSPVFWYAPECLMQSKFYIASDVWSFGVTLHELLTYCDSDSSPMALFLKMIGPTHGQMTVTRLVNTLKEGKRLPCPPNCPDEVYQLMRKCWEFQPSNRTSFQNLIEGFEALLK
# T2 sequence (P29597 whole entry): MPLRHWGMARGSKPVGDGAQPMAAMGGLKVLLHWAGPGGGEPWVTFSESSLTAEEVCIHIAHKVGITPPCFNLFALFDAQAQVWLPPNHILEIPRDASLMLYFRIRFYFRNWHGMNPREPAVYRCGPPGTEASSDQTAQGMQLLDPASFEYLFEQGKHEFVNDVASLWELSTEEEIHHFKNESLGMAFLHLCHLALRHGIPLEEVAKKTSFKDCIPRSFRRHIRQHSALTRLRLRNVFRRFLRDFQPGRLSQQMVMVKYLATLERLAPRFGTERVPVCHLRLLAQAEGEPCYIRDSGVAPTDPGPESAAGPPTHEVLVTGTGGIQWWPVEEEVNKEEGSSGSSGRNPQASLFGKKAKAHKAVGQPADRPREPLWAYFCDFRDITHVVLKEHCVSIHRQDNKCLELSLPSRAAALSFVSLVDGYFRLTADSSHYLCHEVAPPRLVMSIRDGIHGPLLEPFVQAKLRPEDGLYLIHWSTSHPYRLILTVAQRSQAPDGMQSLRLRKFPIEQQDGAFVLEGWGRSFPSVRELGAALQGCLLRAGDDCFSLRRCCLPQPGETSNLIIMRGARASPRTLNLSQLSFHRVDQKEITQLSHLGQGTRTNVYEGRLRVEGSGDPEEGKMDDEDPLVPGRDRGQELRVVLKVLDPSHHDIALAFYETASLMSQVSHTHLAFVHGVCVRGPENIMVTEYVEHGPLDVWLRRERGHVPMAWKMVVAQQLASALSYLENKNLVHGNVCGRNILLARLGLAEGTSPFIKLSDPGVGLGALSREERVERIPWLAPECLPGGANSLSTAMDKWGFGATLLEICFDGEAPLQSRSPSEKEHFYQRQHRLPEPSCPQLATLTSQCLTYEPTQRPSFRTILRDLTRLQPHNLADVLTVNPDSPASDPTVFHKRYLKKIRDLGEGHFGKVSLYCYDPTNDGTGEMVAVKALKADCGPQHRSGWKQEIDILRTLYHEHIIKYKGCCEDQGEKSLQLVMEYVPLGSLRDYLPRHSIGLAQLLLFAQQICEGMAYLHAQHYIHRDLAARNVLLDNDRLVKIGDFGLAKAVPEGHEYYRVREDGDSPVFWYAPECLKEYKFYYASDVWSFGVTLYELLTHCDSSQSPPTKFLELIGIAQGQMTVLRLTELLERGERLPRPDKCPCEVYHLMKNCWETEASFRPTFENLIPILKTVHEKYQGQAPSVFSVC
Structure (SMILES),Ki (JAK3) [nM],JAK3 (pKi)-JAK1 (pKi) (JAK3; [2]),Ki (Tyk2) [nM],Ki (JAK1) [nM],Ki (JAK2) [nM],"IC50 [1, 3] [nM]",JAK3 (pKi)-JAK1 (pKi) (JAK3; [4]),"IC50 [1, 5] [nM]",JAK 3 (pKi) (JAK3),Tyk 2 (pKi) (Tyk2),JAK 1 (pKi) (JAK1),JAK 2 (pKi) (JAK2),"Tall-1 (pIC50) [1, 6]","Tall-1 (pIC50) [1, 7]"
COC1CCCN(C/C=C/C(=O)N2CC(COc3cc(-c4ccc(O)cc4)cc4[nH]ncc34)C2)C1 (stereo not drawn) [Compound 3-128],< 0.1,A (a value of 3 or above),> 100,> 100,0.1 to 1,31.6 to 200,,,,,,,,
C=CC(=O)N1CC[C@@H](Oc2cc(-c3ccc(O)cc3)cc3[nH]ncc23)C[C@H]1C [Compound 12-29],0.1 to 1,,> 100,> 100,10 to 100,,A (a value of 3 or above),< 31.6,,,,,,
C=CC(=O)N1CCC(Oc2cc(-c3ccc(O)cc3)nc3[nH]ncc23)CC1C (stereo not drawn) [Compound 13-11],,,,,,,A (a value of 3 or above),,A (a pKi value≥10 (Ki≤0.1 nM)),E (a pKi value of 7 or below (Ki of 100 nM or above)),E (a pKi value of 7 or below (Ki of 100 nM or above)),E (a pKi value of 7 or below (Ki of 100 nM or above)),A (a pIC50 value≥7.5 (IC50≤32 nM)),
C=CC(=O)N1CC2(CC(Oc3nc(-c4ccc(O)c(Cl)c4)nc4[nH]ncc34)C2)C1 [Compound 15-9],,,,,,,A (a value of 3 or above),,A (a pKi value≥10 (Ki≤0.1 nM)),E (a pKi value of 7 or below (Ki of 100 nM or above)),E (a pKi value of 7 or below (Ki of 100 nM or above)),E (a pKi value of 7 or below (Ki of 100 nM or above)),B (a pIC50 value between 6.7 (included) and 7.5 (IC50 between 200 nM and 32 nM)),
C=CC(=O)N1CCSC(C(=O)Nc2cc(-c3ccc(O)cc3)cc3[nH]ncc23)C1 (stereo not drawn) [Compound 12-42],0.1 to 1,,> 100,> 100,10 to 100,,B (a value of 2.3 to 3),31.6 to 200,,,,,,
C=CC(=O)N1CC(C)(COc2cc(-c3ccc(O)cc3)nc3[nH]ncc23)C1 [Compound 3-58],,A (a value of 3 or above),,,,,,,A (a pKi value≥10 (Ki≤0.1 nM)),E (a pKi value of 7 or below (Ki of 100 nM or above)),E (a pKi value of 7 or below (Ki of 100 nM or above)),E (a pKi value of 7 or below (Ki of 100 nM or above)),,B (a pIC50 value between 6.7 (included) and 7.5 (IC50 between 200 nM and 32 nM))
C=CC(=O)N1CC[C@H](COc2cc(-c3ccc(O)c(F)c3)nc3[nH]ncc23)C1 [Compound 2-17],,A (a value of 3 or above),,,,,,,A (a pKi value≥10 (Ki≤0.1 nM)),E (a pKi value of 7 or below (Ki of 100 nM or above)),E (a pKi value of 7 or below (Ki of 100 nM or above)),E (a pKi value of 7 or below (Ki of 100 nM or above)),,B (a pIC50 value between 6.7 (included) and 7.5 (IC50 between 200 nM and 32 nM))
CN1CCC[C@H]1/C=C/C(=O)N1CC(COc2cc(-c3ccc(O)cc3)cc3[nH]ncc23)C1 [Compound 3-115],0.1 to 1,A (a value of 3 or above),> 100,> 100,0.1 to 1,31.6 to 200,,,,,,,,
C=CC(=O)N1CC(C)(COc2nc(-c3ccc(O)c(F)c3)cc3[nH]ncc23)C1 [Compound 3-59],,B (a value of 2.3 to 3),,,,,,,B (a pKi value between 9 and 10 (Ki between 1 nM and 0.1 nM)),E (a pKi value of 7 or below (Ki of 100 nM or above)),E (a pKi value of 7 or below (Ki of 100 nM or above)),D (a pKi value between 7 and 8 (Ki between 100 nM and 10 nM)),,A (a pIC50 value≥7.5 (IC50≤32 nM))
C=CC(=O)N1CC(COc2cc(-c3ccc(O)c(F)c3)cc3[nH]ncc23)C1 [Compound 3-4],0.1 to 1,A (a value of 3 or above),> 100,> 100,10 to 100,< 31.6,,,,,,,,
C=CC(=O)N1CC(Oc2cc(-c3ccc(O)cc3)cc3[nH]ncc23)(C(F)F)C1 [Compound 5-14],,A (a value of 3 or above),,,,,,,A (a pKi value≥10 (Ki≤0.1 nM)),E (a pKi value of 7 or below (Ki of 100 nM or above)),E (a pKi value of 7 or below (Ki of 100 nM or above)),E (a pKi value of 7 or below (Ki of 100 nM or above)),,A (a pIC50 value≥7.5 (IC50≤32 nM))
CN(C)CC=CC(=O)N1CCCC(Oc2cc(-c3ccc(O)c(Cl)c3)cc3[nH]ncc23)C1 (stereo not drawn) [Compound 8-2],,,,,,,A (a value of 3 or above),,B (a pKi value between 9 and 10 (Ki between 1 nM and 0.1 nM)),E (a pKi value of 7 or below (Ki of 100 nM or above)),E (a pKi value of 7 or below (Ki of 100 nM or above)),D (a pKi value between 7 and 8 (Ki between 100 nM and 10 nM)),B (a pIC50 value between 6.7 (included) and 7.5 (IC50 between 200 nM and 32 nM)),
COC1(COc2cc(-c3ccc(O)cc3)cc3[nH]ncc23)CN(C(=O)/C=C/CN(C)C)C1 [Compound 3-32],0.1 to 1,A (a value of 3 or above),> 100,> 100,> 100,< 31.6,,,,,,,,
C=CC(=O)N1CC2(CCC2Oc2cc(-c3ccc(O)cc3)cc3[nH]ncc23)C1 (stereo not drawn) [Compound 12-54],0.1 to 1,,> 100,> 100,10 to 100,,B (a value of 2.3 to 3),< 31.6,,,,,,
